In patent US20250136722A1, “CYTOTOXICITY TARGETING CHIMERAS” (GLAXOSMITHKLINE INTELLECTUAL PROPERTY DEVELOPMENT LIMITED, priority 2021, published 2025):
Where “and” joins values, the source holds several entries; their conditions need not be identical. Equal values may be shown once.

Key:
[1] = target: human alpha1 nicotinic acetylcholine (nACh) receptor (Homo sapiens, UniProt P02708+Q07001); assay: Nicotinic acetylcholine receptor antagonism assay, IONFlux automated patch clamp (Example 203); format: cell-based; conditions: for Emax at 100 µM: maximum percentage antagonism at maximum concentration tested 100 μM; for Emax at 100 µM / Emax at 10 µM: read-out: Maximum Response (%); for IC50: nAChR antagonism, ACh stimulated, patch clamp; for Emax at 10 µM: maximum percentage antagonism at maximum concentration tested 10 μM
Procedure: Cells expressing human alpha1 nicotinic acetylcholine (nACh) receptor (nAChR) were washed and dissociated using Trypsin containing buffer. Cells were then washed and seeded at a density of 3-5 million cells/mL and allowed to grow for 3 days. Then, 60-80 μL of cells were added to plates and incubated with dose response of an ARM compound of Formula (I) with a top concentration of either 10 μM or 100 μM. The receptor was then stimulated via addition of acetylcholine (ACh) and activation of the receptor was monitored via the IONFlux automated patch clamp system. IonFlux Data Analyzer software was utilized to perform leak subtraction and measure (min) peak current amplitude.
Data processing: (1) Current values recorded for vehicle only applications in individual traps/patterns were subtracted from corresponding current amplitude values for control, test article and control+test article. (2) Control response was calculated as % of the average response of the 3rd out of total 3 ACh (10 mM) applications alone. In rare situations, if the 3rd ACh response was obscured due to technical artifacts, the 2nd and/or 1 st ACh (10 mM) application was considered as control. The peak current amplitude generated in the presence of each test article concentration was then used to calculate the % inhibition as compared to control response (10 mM ACh alone). These estimates were further corrected for vehicle response and run down corrected by normalizing with time matched control responses (10 mM ACh alone). The corrected percentages were then fit with a non-linear function in GraphPad Prism 6 (or later versions) to determine the […].
Exclusion criteria: (i) any n's with poor recording quality, (ii) control current amplitude <500 pA or (iii) significant outliers, as determined by the Grubbs' test.
ARMs compounds of Formula (I) of the invention were tested for antagonism of the nAChR in the above assay in […] experimental runs and the results are shown in Table 7 below. Antagonistic activity of the compounds of Formula (I) of the invention is reported as an IC50 value (half maximal inhibitory concentration) and the maximum percentage antagonism observed at the highest concentration of compound of Formula (I) tested, as indicated in Table 7. For compounds tested in more than one experimental run, the IC50 value is reported as an average.

[2] = target: T1, CHOK1 cells engineered to overexpress human CCR2 (Homo sapiens, UniProt P41597); assay: Antibody dependent cellular cytotoxicity (ADCC) reporter assay (Example 199); format: cell-based; conditions: with anti-cotinine antibody SEQ ID NO: 11/12; CHOK1-human CCR2 target cells, Jurkat FcγRIIIa NFAT-luciferase reporter cells; 12-18 hours; read-out: ADCC Reporter Assay pEC50 (converted)
T1 construct: expressed in transfected cells; host or cells: CHOK1 cells
Procedure, shortened: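 CHOK1-hCCR2 target cells are co-incubated for 12–18 h with Jurkat FcγRIIIa/NFAT-luciferase reporter cells, ARM compound (1 pM–10 μM) and anti-cotinine antibody with a DE-mutant human IgG1 Fc (0.01–200 μg/mL). Luminescence is expressed as signal:background against no-compound wells; EC50 comes from nonlinear fit and is reported as pEC50, averaged across runs.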

[3] = target: Anti-cotinine antibody (SEQ ID NO: 11 / SEQ ID NO: 12, rabbit variable region with human IgG1 Fc domain); assay: Binding of anti-cotinine antibody to ARM compounds by SPR, Biacore T200, 37° C. (Example 202); conditions: pH 7.4, rabbit variable region/human IgG1 Fc antibody captured on protein A
Procedure, shortened: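 Antibody captured on protein A chip. Compounds injected (3-fold, 5-point, top 200 nM) at 100 μL/min with 200 s association and 2000 s dissociation, at 37° C. in HEPES pH 7.4 buffer with 1% DMSO. Double-referenced data fit to 1:1 kinetics. Kd = koff/kon, reported as pKd, averaged over runs.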

Sequence of human alpha1 nicotinic acetylcholine (nACh) receptor (P02708 21-457): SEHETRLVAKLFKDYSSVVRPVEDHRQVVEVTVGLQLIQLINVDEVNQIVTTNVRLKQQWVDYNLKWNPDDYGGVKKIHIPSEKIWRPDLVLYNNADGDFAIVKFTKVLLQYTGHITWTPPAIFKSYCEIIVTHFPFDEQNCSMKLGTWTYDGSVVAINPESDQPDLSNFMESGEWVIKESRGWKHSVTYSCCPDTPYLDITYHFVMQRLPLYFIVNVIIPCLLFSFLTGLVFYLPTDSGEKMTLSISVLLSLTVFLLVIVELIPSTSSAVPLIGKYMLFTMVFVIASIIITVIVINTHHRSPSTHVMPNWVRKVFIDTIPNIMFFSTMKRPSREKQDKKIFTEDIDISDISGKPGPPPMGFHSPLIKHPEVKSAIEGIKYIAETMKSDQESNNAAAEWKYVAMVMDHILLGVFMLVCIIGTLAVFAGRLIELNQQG
Sequence of human alpha1 nicotinic acetylcholine (nACh) receptor (P11230 24-501 partner): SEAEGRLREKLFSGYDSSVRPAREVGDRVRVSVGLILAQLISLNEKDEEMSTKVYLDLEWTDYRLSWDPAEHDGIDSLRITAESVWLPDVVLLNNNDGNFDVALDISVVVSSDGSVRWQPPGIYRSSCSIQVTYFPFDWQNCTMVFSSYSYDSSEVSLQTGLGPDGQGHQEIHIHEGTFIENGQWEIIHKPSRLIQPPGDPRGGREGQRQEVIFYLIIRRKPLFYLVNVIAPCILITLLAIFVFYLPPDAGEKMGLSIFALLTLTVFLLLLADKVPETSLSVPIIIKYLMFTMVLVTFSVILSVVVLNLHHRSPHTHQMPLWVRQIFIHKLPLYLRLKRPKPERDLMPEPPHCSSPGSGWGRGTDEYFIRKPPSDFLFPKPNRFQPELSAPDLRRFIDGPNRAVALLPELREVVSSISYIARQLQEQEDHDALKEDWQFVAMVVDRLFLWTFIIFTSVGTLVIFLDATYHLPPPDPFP
Sequence of human alpha1 nicotinic acetylcholine (nACh) receptor (Q07001 22-517): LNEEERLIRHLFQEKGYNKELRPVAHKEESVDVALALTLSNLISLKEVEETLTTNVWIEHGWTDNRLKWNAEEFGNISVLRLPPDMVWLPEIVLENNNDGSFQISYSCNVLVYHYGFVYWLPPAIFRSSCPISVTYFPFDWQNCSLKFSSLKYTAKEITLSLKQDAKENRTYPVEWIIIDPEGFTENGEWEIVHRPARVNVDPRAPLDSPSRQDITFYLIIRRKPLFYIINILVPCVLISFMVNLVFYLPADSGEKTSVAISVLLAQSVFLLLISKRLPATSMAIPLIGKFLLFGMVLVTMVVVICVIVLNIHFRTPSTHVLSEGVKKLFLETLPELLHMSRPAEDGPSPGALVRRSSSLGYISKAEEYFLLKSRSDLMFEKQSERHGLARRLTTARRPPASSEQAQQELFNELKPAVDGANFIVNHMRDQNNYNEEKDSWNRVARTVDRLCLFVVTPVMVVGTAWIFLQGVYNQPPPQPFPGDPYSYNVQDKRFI

Structure (SMILES)	Emax at 100 µM [1] [%]	IC50 [1] [nM]	EC50 [2]	pKd of Antibody for ARM Compound of Formula (I) [3]	Emax at 10 µM [1] [%]
CN1C(=O)C[C@H](C(=O)NCCOCCOCCOCCC(=O)N[C@H]2CC[C@@H](C(=O)N[C@@H]3C[C@H](NC(C)(C)C)CC[C@@H]3N3CC[C@H](Nc4ncnc5ccc(C(F)(F)F)cc45)C3=O)CC2)[C@H]1c1cccnc1 [Example 23, (2S,3S)-N-(2-(2-(2-(3-(((1S,4s)-4-(((1R,2S,5R)-5-(tert-Butylamino)-2-((S)-2-oxo-3-((6-(trifluoromethyl)quinazolin-4-yl)amino)pyrrolidin-1-yl)cyclohexyl)carbamoyl)cyclohexyl)amino)-3-oxopropoxy)ethoxy)ethoxy)ethyl)-1-methyl-5-oxo-2-(pyridin-3-yl)pyrrolidine-3-carboxamide]	50.5	85200	1.12 nM and 2.69 nM and 0.566 nM	9.2166	–
CC(C)N(C)[C@@H]1CC[C@H](N2CC[C@H](Nc3ncnc4ccc(C(F)(F)F)cc34)C2=O)[C@H](NC(=O)[C@H]2CC[C@@H](NC(=O)CCCO[C@H]3CC[C@H](OCCNC(=O)[C@H]4CC(=O)N(C)[C@@H]4c4cccnc4)CC3)CC2)C1 [Example 5]	40.5	> 100000	0.316 nM and 0.386 nM	9.19	–
CC(C)N(C)[C@@H]1CC[C@H](N2CC[C@H](Nc3ncnc4ccc(C(F)(F)F)cc34)C2=O)[C@H](NC(=O)[C@H]2CC[C@H](NC(=O)CCCC(=O)NCCCOCCCNC(=O)[C@H]3CC(=O)N(C)[C@@H]3c3cccnc3)CC2)C1 [Example 19]	34.2	> 100000	4.9 nM	9.19	–
CC(C)N(C)[C@@H]1CC[C@H](N2CC[C@H](Nc3ncnc4ccc(C(F)(F)F)cc34)C2=O)[C@H](NC(=O)COCCNC(=O)COCCNC(=O)COCCNC(=O)[C@H]2CC(=O)N(C)[C@@H]2c2cccnc2)C1 [Example 111, (2S,3S)-N-(17-(((1R,2S,5R)-5-(Isopropyl(methyl)amino)-2-((S)-2-oxo-3-((6-(trifluoromethyl)quinazolin-4-yl)amino)pyrrolidin-1-yl)cyclohexyl)amino)-5,11,17-trioxo-3,9,15-trioxa-6,12-diazaheptadecyl)-1-methyl-5-oxo-2-(pyridin-3-yl)pyrrolidine-3-carboxamide]	67.6	52900	6.31 nM	9.0855	–
CCN1C(=O)C[C@H](C(=O)NCCOCCOCCOCCC(=O)N[C@H]2CC[C@@H](C(=O)N[C@@H]3C[C@H](N(C)C(C)C)CC[C@@H]3N3CC[C@H](Nc4ncnc5ccc(C(F)(F)F)cc45)C3=O)CC2)[C@H]1c1cccnc1 [Example 34]	79.2	28500	1 nM	9.933	–
CC(C)N(C)[C@@H]1CC[C@H](N2CC[C@H](Nc3ncnc4ccc(C(F)(F)F)cc34)C2=O)[C@H](NC(=O)CNC(=O)[C@H]2CC[C@@H](NC(=O)CCOCCOCCNC(=O)[C@H]3CC(=O)N(C)[C@@H]3c3cccnc3)CC2)C1 [Example 137, (2S,3S)-N-(2-(2-(3-(((1S,4s)-4-((2-(((1R,2S,5R)-5-(Isopropyl(methyl)amino)-2-((S)-2-oxo-3-((6-(trifluoromethyl)quinazolin-4-yl)amino)pyrrolidin-1-yl)cyclohexyl)amino)-2-oxoethyl)carbamoyl)cyclohexyl)amino)-3-oxopropoxy)ethoxy)ethyl)-1-methyl-5-oxo-2-(pyridin-3-yl)pyrrpolidine-3-carboxamide]	62	70000	1.67 nM	9.336	–
CC(C)N(C)[C@@H]1CC[C@H](N2CC[C@H](Nc3ncnc4ccc(C(F)(F)F)cc34)C2=O)[C@H](NC(=O)[C@H]2CC[C@@H](NC(=O)CCOCCOCCOCCNC(=O)[C@H]3CC(=O)N(C)[C@@H]3c3cccnc3)CC2)C1 [Example 28]	69.9	40900	0.251 nM	9.273	–
CC(C)N(C)[C@@H]1CC[C@H](N2CC[C@H](Nc3ncnc4ccc(C(F)(F)F)cc34)C2=O)[C@H](NC(=O)CCOCCC(=O)N[C@H]2C[C@@H](C(=O)NCCOCCNC(=O)[C@H]3CC(=O)N(C)[C@@H]3c3cccnc3)C2)C1 [Example 186, (2S,3S)-N-(2-(2-((1S,3R)-3-(3-(3-(((1R,2S,5R)-5-(Isopropyl(methyl)amino)-2-((S)-2-oxo-3-((6-(trifluoromethyl)quinazolin-4-yl)amino)pyrrolidin-1-yl)cyclohexyl)amino)-3-oxopropoxy)propanamido)cyclobutane-1-carboxamido)ethoxy)ethyl)-1-methyl-5-oxo-2-(pyridin-3-yl)pyrrolidine-3-carboxamide]	55.2	31800	0.151 nM	9.1435	–
CC(C)N(C)[C@@H]1CC[C@H](N2CC[C@H](Nc3ncnc4ccc(C(F)(F)F)cc34)C2=O)[C@H](NC(=O)[C@H]2C[C@@H](NC(=O)CCOCCOCCNC(=O)CCNC(=O)[C@H]3CC(=O)N(C)[C@@H]3c3cccnc3)C2)C1 [Example 49, (2S,3S)-N-(3-((2-(2-(3-(((1S,3s)-3-(((1R,2S,5R)-5-(Isopropyl(methyl)amino)-2-((S)-2-oxo-3-((6-(trifluoromethyl)quinazolin-4-yl)amino)pyrrolidin-1-yl)cyclohexyl)carbamoyl)cyclobutyl)amino)-3-oxopropoxy)ethoxy)ethyl)amino)-3-oxopropyl)-1-methyl-5-oxo-2-(pyridin-3-yl)pyrrolidine-3-carboxamide]	56.7	80300	0.845 nM and 0.303 nM	9.191	–
CC(C)N(C)[C@@H]1CC[C@H](N2CC[C@H](Nc3ncnc4ccc(C(F)(F)F)cc34)C2=O)[C@H](NC(=O)[C@H]2CC[C@H](C3CCN(C(=O)CCOCCOCCNC(=O)[C@H]4CC(=O)N(C)[C@@H]4c4cccnc4)CC3)CC2)C1 [compound 73]	–	> 10000	7.94 nM	9.8185	4.1
CC(C)N(C)[C@@H]1CC[C@H](N2CC[C@H](Nc3ncnc4ccc(C(F)(F)F)cc34)C2=O)[C@H](NC(=O)[C@H]2C[C@@H](NC(=O)CCOCCOCCOCCNC(=O)[C@H]3CC(=O)N(C)[C@@H]3c3cccnc3)C2)C1 [Example 24]	59.5	85300	1.46 nM and 0.358 nM	9.4425	–
CC(C)N(C)[C@@H]1CC[C@H](N2CC[C@H](Nc3ncnc4ccc(C(F)(F)F)cc34)C2=O)[C@H](NC(=O)[C@H]2CC[C@@H](NC(=O)CCCOCCCCOCCNC(=O)[C@H]3CC(=O)N(C)[C@@H]3c3cccnc3)CC2)C1 [Example 122]	–	> 10000	–	9.146	23
CC(C)N(C)[C@@H]1CC[C@H](N2CC[C@H](Nc3ncnc4ccc(C(F)(F)F)cc34)C2=O)[C@H](NC(=O)[C@H]2CC[C@@H](CC(=O)CCCOC[C@H]3CC[C@H](COCCNC(=O)[C@H]4CC(=O)N(C)[C@@H]4c4cccnc4)CC3)CC2)C1 [Example 60]	–	> 10000	–	9.4635	18.2
CC(C)N(C)[C@@H]1CC[C@H](N2CC[C@H](Nc3ncnc4ccc(C(F)(F)F)cc34)C2=O)[C@H](NC(=O)CCOCCOCCNC(=O)NCCOCCOCCNC(=O)[C@H]2CC(=O)N(C)[C@@H]2c2cccnc2)C1 [Example 119, (2S,3S)-N-(20-(((1R,2S,5R)-5-(Isopropyl(methyl)amino)-2-((S)-2-oxo-3-((6-(trifluoromethyl)quinazolin-4-yl)amino)pyrrolidin-1-yl)cyclohexyl)amino)-10,20-dioxo-3,6,14,17-tetraoxa-9,11-diazaicosyl)-1-methyl-5-oxo-2-(pyridin-3-yl)pyrrolidine-3-carboxamide]	–	–	1.58 nM	9.1735	–
